Measurements reported in patent US20260184693A1, “INHIBITORS OF SOLUTE CARRIER FAMILY 6A MEMBER 19 (SLC6A19) AND METHODS OF USE THEREOF” (Maze Therapeutics, Inc., priority 2022, published 2026).

Molecular target: T1, human SLC6A19 (Homo sapiens, UniProt Q695T7)
T1 construct: expressed in transfected cells
T1 sequence (Q695T7 1-634): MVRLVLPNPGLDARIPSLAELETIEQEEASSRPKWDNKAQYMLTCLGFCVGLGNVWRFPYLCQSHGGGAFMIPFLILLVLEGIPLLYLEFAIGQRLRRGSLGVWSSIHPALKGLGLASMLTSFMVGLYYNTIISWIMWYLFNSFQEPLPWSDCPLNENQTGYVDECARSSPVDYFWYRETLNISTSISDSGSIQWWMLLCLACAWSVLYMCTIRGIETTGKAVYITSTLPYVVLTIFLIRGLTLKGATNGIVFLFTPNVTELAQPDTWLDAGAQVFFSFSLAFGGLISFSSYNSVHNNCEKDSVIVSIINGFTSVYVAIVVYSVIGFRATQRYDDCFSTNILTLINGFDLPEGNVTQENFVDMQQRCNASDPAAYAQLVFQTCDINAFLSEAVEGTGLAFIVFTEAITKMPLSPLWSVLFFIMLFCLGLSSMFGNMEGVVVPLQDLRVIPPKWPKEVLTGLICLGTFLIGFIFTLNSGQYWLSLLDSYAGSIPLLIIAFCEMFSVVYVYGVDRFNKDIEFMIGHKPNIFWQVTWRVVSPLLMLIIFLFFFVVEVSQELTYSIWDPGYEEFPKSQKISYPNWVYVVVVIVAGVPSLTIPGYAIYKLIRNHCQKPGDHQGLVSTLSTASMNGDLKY
T1 sequence (Q9HBJ8 15-222 partner): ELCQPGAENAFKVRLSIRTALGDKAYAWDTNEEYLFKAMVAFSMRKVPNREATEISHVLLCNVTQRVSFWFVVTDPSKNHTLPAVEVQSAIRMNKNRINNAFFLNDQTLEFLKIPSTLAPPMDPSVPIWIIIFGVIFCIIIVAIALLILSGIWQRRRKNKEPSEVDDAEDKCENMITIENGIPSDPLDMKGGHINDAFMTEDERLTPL
Assay: Example B2: 13C6,15N-isoleucine uptake, RapidFire mass spectrometry, in CHO cells with doxycycline-inducible expression of human SLC6A19 and TMEM27
Type: cell-based
Details: read-out: SLC6A19_RapidFire Uptake Assay IC50
Method: Assay ready vials of CHO cells with doxycycline inducible expression of human SLC6A19 and TMEM27 were thawed, plated in T175 flasks containing DMEM/F12 media, 10% FBS, 100 Penicillin-Streptomycin, 1× UltraGlutamate, 1 mM Sodium Pyruvate, Sodium Bicarbonate (7.5 mL of 7.5% solution in 500 mL media final), […] Blasticidin, 150 µg/mL Hygromycin B Gold, and 500 µg/mL G418, and incubated (humidified, 37° C. with […]) for 48 hours. Media was then removed, flasks were washed with 20 mL of DPBS, and 5 mL of TryμLE™ Express was added to each flask to initiate cell dissociation. After 5 minutes, 10 mL of cell culture media was added to each flask and mixed. The cell suspension was collected and centrifuged for 5 minutes at 200×g. The supernatant was removed, and the pellet was resuspended in 10 mL of cell culture media. Resuspended cells were counted using a Vi-Cell. 30 μL/well (20,000 cells/well) of cell suspension was added to Poly-D-Lysine 384-well black/clear plates. Plates were incubated (humidified, 37° C. with 5% CO2) for 24 hours. To induce expression of human SLC6A19 and TMEM27, 10 μL of assay culture media containing 4 μg/mL doxycycline was added to each well. Assay plates were then incubated (humidified, 37° C. with 5% CO2) overnight. After incubation, the media was removed, and wells were washed 3 times with 40 μL of warmed DPBS. […] All compounds were plated in a duplicate 10-point dilution series that consisted of 2-fold dilutions. The plates were incubated (humidified, 37° C. with 5% CO2) with compound for 20 minutes. Afterwards, 20 μL/well of 2 mM 13C6,15N-1-isoleucine was added to each well and plates were incubated again (humidified, 37° C. with 5% CO2) for another 20 minutes. Assay buffer was then removed, and plates were washed. 70 μL/well of stop solution (75% acetonitrile, 25% HPLC grade water, 250 nM 1-leucine-1-13 C (RapidFire standard)) was added to each well. The plates were sealed and then placed in a −20° C. freezer for 20 minutes. The plates were thawed at room temperature for 20 minutes and then centrifuge for 20 minutes at 3000 rpm. Using an ABSciex API4000 mass spectrometer, processed samples were loaded onto the graphitic carbon SPE-column. The time for aspiration, load/wash, elution and re-equilibration time was 600, 1500, 3000 and 500 milliseconds, respectively. Peak areas were calculated using RapidFire Integrator software.

SMILES | IC50 [µM]
COCC(C)C(=O)N1CCC[C@@H](N(C)C(=O)NCc2cc3cc(Cl)ccc3[nH]2)C1 (stereo partly drawn) [Compound 82, 3-((5-chloro-1H-indol-2-yl)methyl)-1-((3R)-1-(3-methoxy-2-methylpropanoyl)piperidin-3-yl)-1-methylurea] | 3.81
CN(C(=O)NCc1cc2cc(Cl)ccc2[nH]1)[C@@H]1CCCN(C(=O)CCNC(N)=O)C1 [Compound 73, (R)-3-((5-chloro-1H-indol-2-yl)methyl)-1-methyl-1-(1-(3-ureidopropanoyl)piperidin-3-yl)urea] | 0.897
Cc1cnoc1C(=O)N1CCC[C@@H](N(C)C(=O)NCc2cc3cc(Cl)ccc3[nH]2)C1 [Compound 36, (R)-3-((5-chloro-1H-indol-2-yl)methyl)-1-methyl-1-(1-(4-methylisoxazole-5-carbonyl)piperidin-3-yl)urea] | 1.57
CN(C(=O)NCc1cc2cc(Cl)ccc2[nH]1)[C@@H]1CCCN(C(=O)C2CCC2)C1 [Compound 48, (R)-3-((5-chloro-1H-indol-2-yl)methyl)-1-(1-(cyclobutanecarbonyl)piperidin-3-yl)-1-methylurea] | 0.0442
CC(=O)N1CCC[C@@H](N(C)C(=O)NCc2cc3cc(Cl)c(C#N)cc3[nH]2)C1 [Compound 182, (R)-1-(1-acetylpiperidin-3-yl)-3-((5-chloro-6-cyano-1H-indol-2-yl)methyl)-1-methylurea] | 2.93
CC(=O)N1CCC[C@@H](N(C)C(=O)NCc2cc3cc(F)c(Cl)cc3[nH]2)C1 [Compound 164, (R)-1-(1-acetylpiperidin-3-yl)-3-((6-chloro-5-fluoro-1H-indol-2-yl)methyl)-1-methylurea] | 0.351
COCC(=O)N1CCC[C@@H](N(C)C(=O)NCc2cc3cc(Cl)ccc3[nH]2)C1 [Compound 15, (R)-3-((5-chloro-1H-indol-2-yl)methyl)-1-(1-(2-methoxyacetyl)piperidin-3-yl)-1-methylurea] | 0.539
CC(=O)N1CCC[C@@H](N(C)C(=O)NCc2cc3ccc(OCc4ccon4)cc3[nH]2)C1 [Compound 141, (R)-1-(1-acetylpiperidin-3-yl)-3-((6-(isoxazol-3-ylmethoxy)-1H-indol-2-yl)methyl)-1-methylurea] | 0.67
COC(C)C(=O)N1CCC[C@@H](N(C)C(=O)NCc2cc3cc(Cl)ccc3[nH]2)C1 (stereo partly drawn) [Compound 43, 3-((5-chloro-1H-indol-2-yl)methyl)-1-((3R)-1-(2-methoxypropanoyl)piperidin-3-yl)-1-methylurea] | 6.25
CN(C(=O)NCc1cc2cc(Cl)ccc2[nH]1)[C@@H]1CCCN(C(=O)[C@@H]2CC(=O)CN2)C1 [Compound 131, 3-((5-chloro-1H-indol-2-yl)methyl)-1-methyl-1-((R)-1-((S)-4-oxopyrrolidine-2-carbonyl)piperidin-3-yl)urea] | > 45.4
CC(=O)N1CCC[C@@H](N(C)C(=O)NCc2cc3cc(Cl)cc(O)c3[nH]2)C1 [Compound 231, (R)-1-(1-acetylpiperidin-3-yl)-3-((5-chloro-7-hydroxy-1H-indol-2-yl)methyl)-1-methylurea] | 1.06
CN(C(=O)NCc1cc2cc(Cl)ccc2[nH]1)[C@@H]1CCCN(C(=O)Cc2cccnc2)C1 [Compound 67, (R)-3-((5-chloro-1H-indol-2-yl)methyl)-1-methyl-1-(1-(2-(pyridin-3-yl)acetyl)piperidin-3-yl)urea] | 0.887
CN(C(=O)NCc1cc2cc(Cl)ccc2[nH]1)[C@@H]1CCCN(C(=O)C2CC2)C1 [Compound 17, (R)-3-((5-chloro-1H-indol-2-yl)methyl)-1-(1-(cyclopropanecarbonyl)piperidin-3-yl)-1-methylurea] | 0.151
CN(C(=O)NCc1cc2cc(Cl)ccc2[nH]1)[C@@H]1CCCN(C(=O)C2(O)CCCC2)C1 [Compound 97, (R)-3-((5-chloro-1H-indol-2-yl)methyl)-1-(1-(1-hydroxycyclopentane-1-carbonyl)piperidin-3-yl)-1-methylurea] | 1.34
CN(C(=O)NCc1cc2cc(Cl)ccc2[nH]1)[C@@H]1CCCN(C(=O)c2ccnn2C)C1 [Compound 51, (R)-3-((5-chloro-1H-indol-2-yl)methyl)-1-methyl-1-(1-(1-methyl-1H-pyrazole-5-carbonyl)piperidin-3-yl)urea] | 4.8
CN(C(=O)NCc1cc2cc(Cl)ccc2[nH]1)[C@@H]1CCCN(C(=O)c2ccn(C(F)F)n2)C1 [Compound 39, (R)-3-((5-chloro-1H-indol-2-yl)methyl)-1-(1-(1-(difluoromethyl)-1H-pyrazole-3-carbonyl)piperidin-3-yl)-1-methylurea] | 0.231
CN(C(=O)NCc1cc2cc(Cl)ccc2[nH]1)[C@@H]1CCCN(C(=O)CN2CCOC2=O)C1 [Compound 2, (R)-3-((5-chloro-1H-indol-2-yl)methyl)-1-methyl-1-(1-(2-(2-oxooxazolidin-3-yl)acetyl)piperidin-3-yl)urea] | 3.52
CN(C(=O)NCc1cc2cc(Cl)ccc2[nH]1)[C@@H]1CCCN(C(=O)CO)C1 [Compound 4, (R)-3-((5-chloro-1H-indol-2-yl)methyl)-1-(1-(2-hydroxyacetyl)piperidin-3-yl)-1-methylurea] | 0.62
CC(=O)N1CCC[C@@H](N(C)C(=O)NCc2cc3cc(Cl)cc(CO)c3[nH]2)C1 [Compound 230, (R)-1-(1-acetylpiperidin-3-yl)-3-((5-chloro-7-(hydroxymethyl)-1H-indol-2-yl)methyl)-1-methylurea] | 12.8
CN(C(=O)NCc1cc2cc(Cl)ccc2[nH]1)[C@@H]1CCCN(C(=O)C2COCCN2)C1 (stereo partly drawn) [Compound 133, 3-((5-chloro-1H-indol-2-yl)methyl)-1-methyl-1-((3R)-1-(morpholine-3-carbonyl)piperidin-3-yl)urea] | > 7.64
CN(C(=O)NCc1cc2cc(Cl)ccc2[nH]1)[C@@H]1CCCN(C(=O)c2cncnc2)C1 [Compound 20, (R)-3-((5-chloro-1H-indol-2-yl)methyl)-1-methyl-1-(1-(pyrimidine-5-carbonyl)piperidin-3-yl)urea] | 8.96
CN(C(=O)NCc1cc2cc(Cl)ccc2[nH]1)[C@@H]1CCCN(C(=O)C2CCC(=O)N2)C1 (stereo partly drawn) [Compound 60, 3-((5-chloro-1H-indol-2-yl)methyl)-1-methyl-1-((3R)-1-(5-oxopyrrolidine-2-carbonyl)piperidin-3-yl)urea] | 7.78
CN(C(=O)NCc1cc2cc(Cl)ccc2[nH]1)[C@@H]1CCCN(C(=O)c2cnnn2C)C1 [Compound 26, (R)-3-((5-chloro-1H-indol-2-yl)methyl)-1-methyl-1-(1-(1-methyl-1H-1,2,3-triazole-5-carbonyl)piperidin-3-yl)urea] | 5.26
CN(C(=O)NCc1cc2cc(Cl)ccc2[nH]1)[C@@H]1CCCN(C(=O)c2ncnn2C)C1 [Compound 28, (R)-3-((5-chloro-1H-indol-2-yl)methyl)-1-methyl-1-(1-(1-methyl-1H-1,2,4-triazole-5-carbonyl)piperidin-3-yl)urea] | > 23.4
CN(C(=O)NCc1cc2cc(Cl)ccc2[nH]1)[C@@H]1CCCN(C(=O)CC2CCCCO2)C1 (stereo partly drawn) [Compound 106, 3-((5-chloro-1H-indol-2-yl)methyl)-1-methyl-1-((3R)-1-(2-(tetrahydro-2H-pyran-2-yl)acetyl)piperidin-3-yl)urea] | 1.77
